Tests used:
[1] = system: hESC-derived cholinergic neurons; experiment: Whole-cell patch clamp, spontaneous synaptic currents of hESC-derived BFCNs; format: cell-based, human; conditions: CNQX 20 μM in bath, BFCNs differentiated 8-10 weeks
Procedure: Whole-cell patch-clamp recordings were made from hESC-derived cholinergic neurons at 8-10 weeks age as previously reported (Johnson et al., 2007). Briefly, the neurons were held at −70 mV to record the spontaneous release and Na+/K+ channel activities. For action potential recording, the cells were held at 0 pA with current-clamp model and the steps of currents from +[…] were injected into cells by the holding electrode. The bath solution consisted of 127 mM NaCl, 1.2 mM KH2PO4, 1.9 mM KCl, 26 mM NaHCO3, 2.2 mM CaCl2, 1.4 mM MgSO4, 10 mM glucose, 290 mM mOsm and 95% O2/5% CO2. Recording pipettes were filled with an intracellular recording solution consisting of 20 mM KCl, 121 mM K^+-gluconate, 10 mM Na^+-HEPES, 10 mM BAPTA, 4 mM Mg2^+-ATP pH 7.2 and 290 mOm. Bicuculline (20 μM; Sigma) or 6-cyano-7-nitroquinoxiline-2,3-dione (CNQX, 20 μM; RBI) was applied to the bath solution to distinguish inhibitory (GABAergic) and excitatory (glutamatergic) response. Biocytin (1%, Sigma) was injected into cells after recording to identify the neuronal identity. An Olympus BX51WI microscope was used to visualize neurons. […] Data were analyzed with pClamp 9.0 (Axon instruments). […]
To determine the functionality of the hESC-derived BFCNs, we first measured the electrophysiological properties of the BFCNs that were differentiated for 8-10 weeks by whole cell patch clamping recording (FIG. 3). […]

striatum = experiment: Unilateral QA-induced striatal lesion; format: in vivo, SCID mice
Procedure: Twenty-four male SCID mice (10 weeks of age) were anesthetized with 1-2% isoflurane mixed in oxygen, and received stereotaxic injection of 2 μl 0.1M quinolinic acid (QA, P63204; Sigma, in saline with 0.2 mg/ml ascorbic acid) in the right striatum at the coordinates (anterior-posterior (AP)=−0.7 mm, lateral (L)=+1.7 mm, vertical (V)=−3.2 mm) to create the unilateral lesion (Hansson et al., 1999).
To assess the function of in vitro produced human medium spiny GABA projection neurons, we created a unilateral QA-induced striatal lesion model in immune deficient SCID mice (Sanberg et al., 1989; Reynolds et al., 2006). Four weeks post injection of QA, majority of neurons, as labeled by NeuN, including FoxP2 and DARPP32 expressing GABA projection neurons in the striatum were lost, resulting in a smaller striatum in the lesion side as compared to the non-lesion side. Accompanying the loss of neurons, there was a significant increased level of GFAP expression in astrocytes.

[2] = system: hESC-derived primitive neural stem cells; experiment: Patterning of hESC-derived primitive neural stem cells to ventral telencephalic progenitors (immunocytochemistry, FACS, Western blotting); format: cell-based, human
Procedure: (§1) The procedure for differentiating hESCs to neuroectodermal cells was the same as described (Li et al., 2005; Zhang et al., 2001). hESCs were differentiated to Pax6-expressing primitive neural stem cells for 10-12 days in a neural induction medium consisting of DMEM/F12, N2 supplement and non-essential amino acids (Pankratz et al., 2007; Zhang et al., 2001). The primitive neural stem cells were then treated with SHH (50-1000 ng/ml) or its small molecule agonist purmorphamine (0.1-1.5 uM, Calbiochem, San Diego, Calif., USA) from day 12 to day 26 to specify ventral progenitors. During this period, neural stem cells grew rapidly and formed neural tube-like rosettes, which were gently blown off at day 15-17 and grown in suspension under the same medium. For neuronal differentiation, neural progenitor clusters were dissociated with Accutase at 37° C. for 5 minutes and plated onto ornithine/laminin-coated coverslips at day 26 in Neurobasal medium.
Immunocytochemical staining on coverslip cultures and free-floating brain sections was performed as previously described (Li et al., 2005; Yang et al., 2008). The images were visualized using a Nikon TE600 fluorescence microscope (Nikon Instruments, Melville, N.Y., USA) or a Nikon C1 laser-scanning confocal microscope.
Protein samples were collected at day 25 after differentiation. Western blot analysis was performed as described (Li et al., 2009). Proteins (25 μg) were separated by 10% acrylamide gel and blotted with antibodies against Nkx2.1 (1:2,000, Mouse IgG, Chemicon & Millipore), Pax6 (1:4,000, Rabbit IgG, Covance), and β-actin (1:4,000, Mouse IgG, Sigma).
To quantify the differentiation efficiency of forebrain progenitors, neural progenitor spheres were dissociated into single cells and quantified by fluorescent activated cell sorting (FACS) (LaVaute et al., 2009). For quantifying differentiated cholinergic neurons, the neural progenitor spheres were digested with Accutase (Innovation Cell Technology) into small clusters and plated on coverslips for immunostaining as previous described (Li et al., 2005; Hu et al., 2009). Optical fields of cultures were randomly selected, and the neuronal cells and total cells (Hoechst stained) were counted using a Metamorph software. All the experiments were triplicated and the results were reproduced in two different cell lines (H1 and H9). For statistical analysis, 2-side t-test was used.
hESCs were first differentiated to Pax6-expressing pNSCs in a chemically defined medium as previously described (Johnson et al., 2007; Li et al., 2005; Zhang et al., 2001). We first determined the time course of SHH action by applying SHH for a week at day 10, 13, and 17 and by quantifying cells that express Nkx2.1, an MGE transcription factor.
Basal forebrain cholinergic neurons (BFCNs) are differentiated from progenitors in the MGE and POa/AEP domains that express Nkx2.1 (Wilson and Rubenstein, 2000; Zhao et al., 2003). […] In contrast, the expression of dorsal telencephalic transcription factors, Pax6 and Emx1, was decreased (FIG. 1B). Immunostaining and Western blotting analyses confirmed that Nkx2.1-expressing cell population increased progressively, with 97±1.3% of the cells being Nkx2.1 positive in the presence of 1000 ng/ml of SHH, whereas the population of Pax6 positive dorsal progenitors decreased, to less than 0.01% under 1000 ng/mlof SHH (FIG. 1C, D, E).

[3] = system: hESC-derived primitive neural stem cells; experiment: RT-qPCR of dorsal/ventral transcription factors in patterned neural stem cells; format: cell-based, human; conditions: SHH 200 or 0.65 uM of purmorphamine, day 25
Procedure: as §1
Total RNA was extracted using Trizol reagent (Invitrogen), and cDNA was reverse-transcribed using the SuperScript III First-Strand (Invitrogen). Real-time PCR was performed using the Bio-Rad MyiQ real-time PCR detection system as described (Du et al., 2009).
Basal forebrain cholinergic neurons (BFCNs) are differentiated from progenitors in the MGE and POa/AEP domains that express Nkx2.1 (Wilson and Rubenstein, 2000; Zhao et al., 2003). […]

[4] = SHH 200 ng/ml or purmorphamine 0.65 uM, day 30

Structure (SMILES): N#Cc1cc2[nH]c(=O)c(=O)[nH]c2cc1[N+](=O)[O-] [CNQX, 6-cyano-7-nitroquinoxiline-2,3-dione]
- spontaneous synaptic activity [1]: partially blocked

Structure (SMILES): O=C(O)c1cccnc1C(=O)O [QA, quinolinic acid]
- stride length on the right limbs versus control animals that received aCSF (Treadscan) (striatum; lesioned mice): longer stride length
- behavioural outcome of unilateral striatal lesion (striatum; rotarod, open field, Treadscan): locomotion deficits typical of HD

Structure (SMILES): c1ccc2c(Oc3nc(Nc4ccc(N5CCOCC5)cc4)c4ncn(C5CCCCC5)c4n3)cccc2c1 [purmorphamine]
- GABA interneuron progenitor marker Nkx2.1 (immunostaining) [2, 4]: minimal expression
- cortical marker Pax6 (immunostaining) [2, 4]: decreased expression
- striatal GABA neuron progenitor markers Meis2, Mash1 and Otx2 (immunostaining) [2, 4]: increased expression
- purmorphamine concentration equivalent to SHH at 200 ng/ml for GABAergic progenitors ([2]; pNSCs treated at day 10-12): ~0.65 µM
- purmorphamine concentration equivalent to SHH at 500 ng/ml for cholinergic progenitors ([2]; pNSCs treated at day 10-12): ~1 µM
- Gsh2 mRNA versus control group (RT-qPCR) [3]: upregulated expression
- Pax6 mRNA versus control group (RT-qPCR) [3]: downregulation

From US8895302B2, “Directed differentiation of primate pluripotent stem cells into functional basal forebrain cholinergic neurons (BFCNs) and medium spiny gabaergic projection neurons” (Wisconsin Alumni Research Foundation, priority 2010, dated 2014)
